Entries after “also recorded” stand apart in the source; their conditions may differ.
Tests used:
[1] = Weekly MADRS-s self-assessment of MDD subjects on a prescribed antidepressant combined with home tDCS sessions (Example 2); type: in vivo, human; conditions: for effectiveness in reducing symptoms of depression (change in MADRS-s) compared to fluoxetine: combined with tDCS, Week 6
Source text: In this example, a subject completed a MADRS-s questionnaire at baseline (defined as a time preceding initiation of neurostimulation) to determine a starting measurement to be used in an assessment of treatment efficacy. Ideally, baseline measures were made close to the period of time in which the first neurostimulation session began. The subject completed the same MADRS-s questionnaire weekly during a period of ongoing treatment comprising administering of a prescribed pharmacologic antidepressant agent and delivery to the subject of plurality tDCS sessions. The number of and date completed of each tDCS session was recording in order to analyze subjects according to how often they successfully completed tDCS sessions as part of their treatment regimens. Subjects were parcellated into groups of 1) depression symptoms absent, 2) mild depression, 3) moderate depression, or 4) severe depression to further enable analysis of changes in MADRS-s score according to severity of depression and adherence to the recommended tDCS session schedule. […]
Subjects were provided with a tDCS neurostimulation device, instructions of use, and an program capable of being run on a handheld electronic device which provided instructions, recorded responses to various questionnaires completed by the subject, and recorded information regarding the tDCS stimulation sessions completed by the user. Amongst the tDCS stimulation session information recorded was the date of each session completed, the time of day of each completed session, the duration of each completed session, the intensity of electrical stimulation in each session, the latency from the most recently completed session to the previous session.
Subjects completed a MADSR-s assessment at baseline prior to their first tDCS session. […] In this treatment tracking questionnaire, subjects recorded if their specific antidepressant agent or category of antidepressant had changed. […] Subjects also recorded if the dosage administered of the antidepressant medication had changed in the past month. […]

[2] = tested on: serotonin reuptake and norepinephrine reuptake; conditions: cited from earlier work

Structure (SMILES) | Result of ANOVA of change in MADRS-s score ([1]; Week 6 after initiation of treatment, Fluoxetine vs. the labelled agent, each combined with tDCS, irrespective of tDCS adherence) | effectiveness in reducing symptoms of depression (change in MADRS-s) compared to fluoxetine [1] | selectivity for serotonin reuptake inhibition than norepinephrine reuptake inhibition [2] [fold]
COc1ccc(C(CN(C)C)C2(O)CCCCC2)cc1 (centres unmarked) [Venlafaxine, venlafaxine] | Approaching | approaching significance | –
CN(C)CC(c1ccc(O)cc1)C1(O)CCCCC1 (centres unmarked) [desvenlafaxine] | – | – | 10
CNCC[C@H](Oc1cccc2ccccc12)c1cccs1 [duloxetine] | – | – | 10
CN[C@H]1CC[C@@H](c2ccc(Cl)c(Cl)c2)c2ccccc21 [Sertraline, sertraline] | – | significant difference; also recorded: significantly better | –

From patent US12667724B2, “Combination therapy for the treatment of depression” (Flow Neuroscience, Inc., priority 2022, dated 2026)
